Here are results for 1 compound from patent publication US20230265048A1, “NOVEL SPHINGOLIPID CONTAINING BRANCHED-CHAIN FATTY ACID AND USE THEREOF” (SOLUS BIOTECH CO., LTD., priority 2020, published 2023).

The structures appear in SMILES notation.

Data set [1] can be described thus: Test Example 3: Solubility in oils and polyols. Details: key: −: Non-soluble; +: Soluble (recrystallization occurred after cooling to room temperature); ++: Very soluble (recrystallization did not occur after cooling to room temperature). As to conditions: heated at 80° C., cooled to room temperature. In kind it is physicochemical. The protocol: The ceramides of Example 4, Comparative Example 1, and Comparative Example 2 were mixed with oils and polyols at 0.1 to 1.0 wt % relative to the solvent substance, and then heated with stirring at 80° C. and then cooled to room temperature.

For data set [2], the system named is skin erythema index on the cheek area. The data set can be described thus: Test Example 6: erythema relieving effect (Mexameter MX 18). Type of data set: in vivo, human. How it is done:
The branched chain fatty acid ceramide-containing formulation prepared in Example 6 was clinically tested for erythema relieving effect. Specifically, for erythema measurement, a total of 10 test subjects were subjected to application of the branched chain fatty acid ceramide-containing formulation prepared in Example 6 twice a day, and measured before use (Week 0), 1 week after use, and 2 weeks after use by an instrument. The skin erythema index on the cheek area was measured using Mexameter MX 18 of Courage+Khazaka (C-K) (Cologne, Germany).

For the compound `CCCCCCCC/C=C\CCCCCCCC(=O)N[C@@H](CO)[C@H](O)/C=C/CCCCCCCCCCCCC` [Comparative Example 2, Oleoyl ceramide, reference compound], the Solubility entry is on record as “+” in data set [1] (Butylene glycol, 0.1%); “+” in data set [1] (Butylene glycol, 0.5%); “−” in data set [1] (Caprylic/capric triglyceride, 0.1%); “−” in data set [1] (Caprylic/capric triglyceride, 0.5%); “−” in data set [1] (Cetyl ethyl hexanoate, 0.1%); “−” in data set [1] (Cetyl ethyl hexanoate, 0.5%). For the same compound, the Solubility entry is “+” in data set [1] (Dipropylene glycol, 0.1%); “−” in data set [1] (Dipropylene glycol, 0.5%); “−” in data set [1] (Glycerin, 0.1%); “−” in data set [1] (Glycerin, 0.5%); “−” in data set [1] (Macadamia ternifolisa seed oil, 0.1%); “−” in data set [1] (Macadamia ternifolisa seed oil, 0.5%). Further, the Solubility result in data set [1] (Propylene glycol, 0.1%) is given as “−”; in data set [1] (Propylene glycol, 0.5%) it was “−”. Moreover, the “Erythema (skin erythema index)” value in data set [2] (Week 0 (before use)) was 261.53 ± 10.82; in data set [2] (Week 1, applied twice a day), 236.2 ± 11.578; in data set [2] (Week 2, applied twice a day) it was 213.47 ± 11.518.
